How the values were obtained:
Type in all cases: cell-based
Settings in all cases: 48 h; for AAM % / PBS %: 25 μM; for AAM %: mean fluorescence compared with Ac4ManNAz (AAM) positive control; for PBS %: mean fluorescence compared with PBS negative control; for Mean FL (×10^5): compound 25 μM, 37° C., DBCO-biotin then streptavidin-Cy5, mean fluorescence of live cells
MDA-MB-231 = experiment: Flow cytometry analysis of cell labeling (labeling efficiency of azido compounds) in MDA-MB-231
Method: (§1) Cells (2.0×10^5 cells/mL, 2 mL) were seeded in a 6-well culture plate and attached at 37° C. overnight. After washed thrice with PBS, the cells were incubated with an azido compound provided herein (25 μM) at 37° C. for 48 h. After washed thrice with PBS, the cells were incubated with DBCO-biotin (50 μM) in 500 μL serum free DMEM at 37° C. for 1 h. The cells were washed thrice with PBS and then incubated with streptavidin-Cy5 (5 μg/mL) in 500 μL serum free DMEM at 37° C. for 1 h. The cells were washed thrice with PBS, followed by addition of 300 μL 1× trypsin/EDTA for digestion. The lifted cells were transferred to a 1.5 mL EP tube, centrifuge at 1,000 rpm for 3 min, and washed with PBS once. Finally, 500 μL PBS containing 4% PFA was added to the cell pellet to fix the cells. The cell suspension was transferred to a flow tube and mixed with 10 μL of a PI working solution (50 μg/mL) at room temperature for 30 min before being subjected to flow cytometry.
(§2) Flow cytometry was used to characterize the labeling efficiency of a compound provided herein. After cells were labeled with an azido group, DBCO-biotin was added to specifically react with the azido group. Avidin-Cy5 was added bind to the cell surface biotin for a flow cytometry analysis. Dead cells were stained with PI and excluded from the analysis. Results were presented as the mean fluorescence of live cells, compared with PBS as a negative control and Ac4ManNAz (AAM) as a positive control, Ac4ManNAz (AAM, CAS: 361154-30-5).

A549 cells = experiment: Flow cytometry analysis of cell labeling (labeling efficiency of azido compounds) in A549 cells
Method: as §1, §2

OVCAR3 = experiment: Flow cytometry analysis of cell labeling (labeling efficiency of azido compounds) in OVCAR3
Method: as §1, §2

In the case of `CC(=O)OC1O[C@H](COP(=O)(N[C@@H](C)C(=O)OC(C)C)Oc2ccccc2)[C@@H](OC(C)=O)[C@H](OC(C)=O)[C@@H]1NC(=O)CN=[N+]=[N-]` (stereo partly drawn) [Compound A1, acetyl 2-(2-azidoacetylamino)-2-deoxy-3,4-di-O-acetyl-6-O—(((S)-1-isopropoxy-carbonylethylamino)(phenoxy)phosphoryl)-D-mannopyranoside], the AAM % (MDA-MB-231) is reported as 101%, the PBS % (MDA-MB-231) is reported as 663% and the “Mean FL (×10^5)” value (MDA-MB-231) is reported as 12.6 ×10^5. For the same compound, the AAM % (A549 cells) was 89%, the PBS % (A549 cells) was 540% and the “Mean FL (×10^5)” value (A549 cells) was 16.2 ×10^5.
With `CC(=O)OC1OC(COP(=O)(N[C@@H](C)C(=O)OC(C)c2ccccc2)Oc2ccccc2)C(OC(C)=O)C(OC(C)=O)C1NC(=O)CN=[N+]=[N-]` (stereo partly drawn) [Compound A3] the AAM % (A549 cells) was 48%, the PBS % (A549 cells) was 294% and the “Mean FL (×10^5)” value (A549 cells) was 8.82 ×10^5.
In the case of `CC(=O)OC1OC(COP(=O)(NC(C)(C)C(=O)OC(C)c2ccccc2)Oc2ccccc2)C(OC(C)=O)C(OC(C)=O)C1NC(=O)CN=[N+]=[N-]` [Compound A4, 2-(2-Azidoacetylamino)-2-deoxy-3,4-di-O-acetyl-6-O-((1-methyl-1-(1-phenyl-ethoxycarbonyl)ethylamino)(phenoxy)phosphoryl)-D-mannopyranoside], the AAM % (A549 cells) is reported as 51%, the PBS % (A549 cells) is reported as 311% and the “Mean FL (×10^5)” value (A549 cells) is reported as 9.32 ×10^5.
`CC(=O)OC1OC(COP(=O)(N[C@H](C(=O)OC(C)c2ccccc2)C(C)C)Oc2ccccc2)C(OC(C)=O)C(OC(C)=O)C1NC(=O)CN=[N+]=[N-]` (stereo partly drawn) [Compound A5, 2-(2-Azidoacetylamino)-2-deoxy-3,4-di-O-acetyl-6-O-(((1S)-1-(1-phenylethoxy-carbonyl)-2-methylpropylamino)(phenoxy)phosphoryl)-D-mannopyranoside] was tested, and the AAM % (A549 cells) was 20%, the PBS % (A549 cells) was 118% and the “Mean FL (×10^5)” value (A549 cells) was 3.55 ×10^5.
In the case of `CCCCOC(=O)[C@H](C)NP(=O)(OC[C@H]1OC(OC(C)=O)[C@@H](NC(=O)CN=[N+]=[N-])[C@@H](OC(C)=O)[C@@H]1OC(C)=O)Oc1ccccc1` (stereo partly drawn) [Compound A18, acetyl 2-(2-azidoacetylamino)-2-deoxy-3,4-di-O-acetyl-6-O—(((S)-1-butoxy-carbonylethylamino)(phenoxy)phosphoryl)-D-mannopyranoside], the AAM % (MDA-MB-231) is reported as 99%, the PBS % (MDA-MB-231) is reported as 653% and the “Mean FL (×10^5)” value (MDA-MB-231) is reported as 12.4 ×10^5.
In the case of `CC(=O)OC1O[C@H](COP(=O)(N[C@@H](C)C(=O)OC(C)(C)C)Oc2ccccc2)[C@@H](OC(C)=O)[C@H](OC(C)=O)[C@@H]1NC(=O)CN=[N+]=[N-]` (stereo partly drawn) [Compound A20, acetyl 2-(2-azidoacetylamino)-2-deoxy-3,4-di-O-acetyl-6-O—(((S)-1-tert-butoxy-carbonylethylamino)(phenoxy)phosphoryl)-D-mannopyranoside], the AAM % (MDA-MB-231) is reported as 51%, the PBS % (MDA-MB-231) is reported as 338% and the “Mean FL (×10^5)” value (MDA-MB-231) is reported as 6.43 ×10^5.
With `CCCCCCOC(=O)[C@H](C)NP(=O)(OC[C@H]1OC(OC(C)=O)[C@@H](NC(=O)CN=[N+]=[N-])[C@@H](OC(C)=O)[C@@H]1OC(C)=O)Oc1ccccc1` (stereo partly drawn) [Compound A22, Acetyl 2-(2-azidoacetylamino)-2-deoxy-3,4-di-O-acetyl-6-O—(((S)-1-hexoxy-carbonylethylamino)(phenoxy)phosphoryl)-D-mannopyranoside] the AAM % (MDA-MB-231) was 104%, the PBS % (MDA-MB-231) was 684% and the “Mean FL (×10^5)” value (MDA-MB-231) was 13.0 ×10^5.
With `CCC(CC)COC(=O)[C@H](C)NP(=O)(OC[C@H]1OC(OC(C)=O)[C@@H](NC(=O)CN=[N+]=[N-])[C@@H](OC(C)=O)[C@@H]1OC(C)=O)Oc1ccccc1` (stereo partly drawn) [Compound A23, Acetyl 2-(2-azidoacetylamino)-2-deoxy-3,4-di-O-acetyl-6-O—(((S)-1-(2-ethyl-butoxy)carbonylethylamino)(phenoxy)phosphoryl)-D-mannopyranoside] the AAM % (MDA-MB-231) was 98%, the PBS % (MDA-MB-231) was 642% and the “Mean FL (×10^5)” value (MDA-MB-231) was 12.2 ×10^5.
With `CC(=O)OC1O[C@H](COP(=O)(N[C@@H](C)C(=O)OCc2cccnc2)Oc2ccccc2)[C@@H](OC(C)=O)[C@H](OC(C)=O)[C@@H]1NC(=O)CN=[N+]=[N-]` (stereo partly drawn) [Compound A24, Acetyl 2-(2-azidoacetylamino)-2-deoxy-3,4-di-O-acetyl-6-O—(((S)-1-pyridin-3-ylmethoxycarbonylethylamino)(phenoxy)phosphoryl)-D-mannopyranoside] the AAM % (OVCAR3) was 28.7%, the PBS % (OVCAR3) was 5923% and the “Mean FL (×10^5)” value (OVCAR3) was 0.77 ×10^5.
`CC(=O)OC1O[C@H](COP(=O)(N[C@@H](C)C(=O)OCc2ccncc2)Oc2ccccc2)[C@@H](OC(C)=O)[C@H](OC(C)=O)[C@@H]1NC(=O)CN=[N+]=[N-]` (stereo partly drawn) [Compound A25, Acetyl 2-(2-azidoacetylamino)-2-deoxy-3,4-di-O-acetyl-6-O—(((S)-1-pyridin-4-ylmethoxycarbonylethylamino)(phenoxy)phosphoryl)-D-mannopyranoside] was tested, and the AAM % (OVCAR3) was 26.9%, the PBS % (OVCAR3) was 5538% and the “Mean FL (×10^5)” value (OVCAR3) was 0.72 ×10^5.
With `CC(=O)OC1O[C@H](COP(=O)(N[C@@H](C)C(=O)OCc2ccnc3ccccc23)Oc2ccccc2)[C@@H](OC(C)=O)[C@H](OC(C)=O)[C@@H]1NC(=O)CN=[N+]=[N-]` (stereo partly drawn) [Compound A26, Acetyl 2-(2-azidoacetylamino)-2-deoxy-3,4-di-O-acetyl-6-O—(((S)-1-quinolin-4-ylmethoxycarbonylethylamino)(phenoxy)phosphoryl)-D-mannopyranoside] the AAM % (MDA-MB-231) was 144%, the PBS % (MDA-MB-231) was 947% and the “Mean FL (×10^5)” value (MDA-MB-231) was 18.0 ×10^5. The AAM % (OVCAR3) was 89.6%, the PBS % (OVCAR3) was 18462% and the “Mean FL (×10^5)” value (OVCAR3) was 2.4 ×10^5.
In the case of `CC(=O)OC1O[C@H](COP(=O)(N[C@@H](C)C(=O)OCc2cccc3ncccc23)Oc2ccccc2)[C@@H](OC(C)=O)[C@H](OC(C)=O)[C@@H]1NC(=O)CN=[N+]=[N-]` (stereo partly drawn) [Compound A27, Acetyl 2-(2-azidoacetylamino)-2-deoxy-3,4-di-O-acetyl-6-O—(((S)-1-quinolin-5-ylmethoxycarbonylethylamino)(phenoxy)phosphoryl)-D-mannopyranoside], the AAM % (MDA-MB-231) is reported as 109%, the PBS % (MDA-MB-231) is reported as 716% and the “Mean FL (×10^5)” value (MDA-MB-231) is reported as 13.6 ×10^5. For the same compound, the AAM % (OVCAR3) was 93.3%, the PBS % (OVCAR3) was 19231% and the “Mean FL (×10^5)” value (OVCAR3) was 2.5 ×10^5.
With `CC(=O)OC[C@H]1OC(OP(=O)(N[C@@H](C)C(=O)OC(C)c2ccccc2)Oc2ccccc2)[C@@H](NC(=O)CN=[N+]=[N-])[C@@H](OC(C)=O)[C@@H]1OC(C)=O` (stereo partly drawn) [Compound B1, (((1S)-1-(1-Phenylethoxy-carbonyl)ethylamino)(phenoxy)phosphoryl) 2-(2-azidoacetylamino)-2-deoxy-3,4,6-tri-O-acetyl-D-mannopyranoside] the AAM % (A549 cells) was 42%, the PBS % (A549 cells) was 256% and the “Mean FL (×10^5)” value (A549 cells) was 7.67 ×10^5.
